Assays:
[1] = target: T1, Orco 28 + Orco (Anopheles gambiae, UniProt Q7QCC7); experiment: Ca2+ imaging, cells expressing Orco + OR28 (Table 1 head "Orco 28 + Orco"); format: cell-based; conditions: for Orco 28 + Orco Potentiator % increase: potentiator mode; for Orco 28 + Orco Antagonist % Reduction: antagonist mode
T1 construct: expressed in transfected cells
T1 sequence (Q7QCC7 1-478): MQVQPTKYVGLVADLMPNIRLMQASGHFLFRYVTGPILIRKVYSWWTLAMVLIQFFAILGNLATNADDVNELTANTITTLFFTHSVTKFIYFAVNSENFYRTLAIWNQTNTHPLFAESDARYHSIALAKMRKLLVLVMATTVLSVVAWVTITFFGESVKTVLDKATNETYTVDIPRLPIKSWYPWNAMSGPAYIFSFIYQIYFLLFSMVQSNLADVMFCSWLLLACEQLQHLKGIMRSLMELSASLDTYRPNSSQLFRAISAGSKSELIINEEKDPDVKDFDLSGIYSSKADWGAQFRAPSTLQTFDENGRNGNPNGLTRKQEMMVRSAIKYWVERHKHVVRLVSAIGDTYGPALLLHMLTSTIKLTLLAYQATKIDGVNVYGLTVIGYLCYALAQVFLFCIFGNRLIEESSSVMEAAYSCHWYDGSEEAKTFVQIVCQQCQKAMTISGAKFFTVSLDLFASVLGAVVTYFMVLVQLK
Description: (§1) The activity against insect odorant sensory receptors was evaluated for various disclosed compounds, and the data were collected in Table 1.

[2] = target: T1, Orco 28 + Orco; experiment: Orco 28 + Orco: agonist / antagonist / potentiator screen (Table 1); format: cell-based; conditions: for Orco 28 + Orco Antagonist % Reduction: antagonist mode; for Orco 28 + Orco Potentiator % increase: potentiator mode
Description: as §1

[3] = target: T2, AgORco+AgOR10 (Anopheles gambiae, UniProt Q7QCC7); experiment: Fluo-4 Ca2+ imaging, HEK293 cells expressing Orco+AgOR10; format: cell-based; set-up: Orco 10 + Orco Angatonist % Reduction / Orco 10 + Orco Agonist % of control: concentration or dose not given beside the values; conditions: for Orco 10 + Orco Potentiator % increase: potentiator mode; for Orco 10 + Orco Angatonist % Reduction: antagonist mode
T2 construct: expressed in transfected cells
T2 sequence (Q7QCC7 1-478): T1 sequence (Q7QCC7 1-478)
Excerpt: (§2) For transient transfections, ORs were cloned into pCl (Promega) and transfected into Flp-In™ T-REx™293 cell lines (Invitrogen) with Fu GENE6 (Roche). For the creation of stable cell lines, a cell culture expression vector capable of expressing Orco in conjunction with a conventional OR, pcDNA5/FRT/TO (Invitrogen) was modified to create two individual expression cassettes each under the control of a separate CMV/Tet02 promoter and a BGH poly-adenylation signal. Cells (as above) were transfected with the modified pcDNA5 plasmid along with POG44 (a Flp recombinase expression plasmid) to facilitate site-specific recombination. Stable cell lines were selected using Hygromycin B (Invitrogen). Cells were maintained in DMEM (Invitrogen) supplemented with 10% Tetracycline-free FBS (HyClone) and 15 ng/ml Blasticidin. For fluorometric Ca2+ measurements, stable lines expressing ORs of interest were seeded at 20,000 cells/well in black wall, poly-lysine coated 384-well cell culture plates (Greiner) and treated with […] tetracycline (Sigma) overnight to induce OR expression. Cells were dye-loaded with 1.8 uM Fluo-4 AM (Molecular Probes), 2.5 mM Probenecid (Molecular Probes) in assay buffer (20 mM HEPES, IX HBSS) for 45 minutes at 37° C. in 5% CO2 prior to each assay. Ca^2+ mobilization was assayed in an FDSS6000 (Hamamatsu). Baseline readings were taken for 20 s before automated addition of compound previously diluted in DMSO and assay buffer. Ratios were described as Maximum/Minimum response and each response was normalized to the maximum responder.
As part of an ongoing, cell based calcium imaging screen for novel small-molecule modulators of AgORs that might disrupt olfactory-driven mosquito behaviors (Rinker et al manuscript in preparation), the inventors identified a number of compounds that activated AgOR10+AgORco-expressing human embryonic kidney (HEK293) cells. One of these compounds, (FIG. 3 A) denoted here as VUAA1, elicited activity consistent with allosteric agonism and was pursued for its novel properties. The identity of VUAA1 was verified using high-resolution mass spectrometry (HRMS) as well as ^1H and ^13C NMR. […] As AgORco was the common element among these functional responses, the inventors postulated that VUAA1 was a potential AgORco agonist.

[4] = target: T3, AgOrco+AgOR65 (Anopheles gambiae, UniProt Q7QCC7); experiment: Ca2+ imaging, HEK cells expressing AgOrco+AgOR65; format: cell-based
T3 construct: expressed in transfected cells
T3 sequence (Q7QCC7 1-478): T1 sequence (Q7QCC7 1-478)
Excerpt: as §2
For VUAA0, a single methyl from the para position of the aniline ring (compound VUAA0, FIG. 44) in the VUAA1 structure was removed. […] In VUAA0.5, unsaturation was introduced at the para position of the aniline ring (VUAA0.5, FIG. 44). […] In VUAA2, the ethyl group of the aniline ring in VUAA1 was replaced with an isopropyl group (VUAA2, FIG. 44).

[5] = tested on: An. gambiae early 4th instar larvae; experiment: Larval mosquito movement assay (Daniovision-Ethovision); format: in vivo, Anopheles gambiae
Description: Next, the agonist activity of the VUAA compound class was tested to establish the involvement of AgORs in mediating larval ortho and klinokinesis in response to a series of semiochemicals using larval-stage An. gambiae mosquitoes. Mosquito larvae are aquatic, thus compounds can be delivered to individual early 4th instar larvae regardless of volatility. The assay currently utilizes 6-well plates and the Daniovision-Ethovision platform (Noldus Inc.) to simultaneously record and analyze 6 larvae, thereby providing modest rates of throughput and a high degree of reproducibility. In these assays, larval movements are automatically quantified over 5-minute period and control larvae consistently move the same number of times in the presence or absence of 0.1% DMSO (p=0.80, n=31) (FIGS. 42-43). Furthermore, the effects of the widely-used synthetic insect repellent N, N-diethyl-meta-toluamide (DEET) was tested and DEET was also observed to increase larval movements at and above a threshold concentration of 5×10^−4M (p=0.013, n=27) (FIGS. 42-43).

[6] = target: T4, AgORco+AgOR48 (Anopheles gambiae, UniProt Q7QCC7); experiment: Ca2+ imaging, HEK cells expressing AgORco+AgOR48; format: cell-based; conditions: AgORco co-expressed with AgOR48; read-out: EC50
T4 construct: expressed in transfected cells
T4 sequence (Q7QCC7 1-478): T1 sequence (Q7QCC7 1-478)
Excerpt: as §2
The ability of VUAA1 and its analogs to agonize representative ORco proteins from dipteran (Anopheles gambiae, AgORco), lepidopteran (Heliothis virescens, HvORco) and hymenopteran (Harpegnathos saltator, HsORco) orders was tested. […] Furthermore, the hierarchy of VUAA series potency was the same, irrespective of whether AgORco was co-expressed with AgOR65 or AgOR48 tuning ORs (FIG. 45). Without wishing to be bound by a particular theory, odorant ligands are thought to activate the complex via interaction with the tuning ORx and thereby affect ORco/ORx channel properties. […] These findings indicate VUAA-class OR co-modulators are viable compounds for further development as broad-spectrum insect control strategies, and VUAA4 can provide an advance in the pharmacological profile of VUAA-based compounds.

SMILES: O=C(CSc1nnc(-c2cccnc2)n1-c1ccc(Br)cc1)c1c[nH]c2ccccc12
- Orco 28 + Orco Potentiator % increase [1]: 19.9%

SMILES: CC(=O)n1ccc2ccc(C(=O)CSc3nnc(-c4cccnc4)n3C)cc21
- Orco 28 + Orco Antagonist % Reduction [2]: 13.76%

SMILES: O=C(CSc1nnc(-c2cccnc2)n1Cc1ccccc1)Nc1ccc(F)cc1
- Orco 28 + Orco Potentiator % increase [1]: 16.12%

SMILES: O=C(CSc1nnc(-c2cccnc2)n1CCc1ccccc1)NCc1ccccc1
- Orco 28 + Orco Potentiator % increase [1]: 15.9%

SMILES: CCn1c(SCC(=O)NCc2ccco2)nnc1-c1cccnc1
- Orco 28 + Orco Antagonist % Reduction [2]: 10.89%
- Orco 10 + Orco Potentiator % increase ([3]; 10 + Orco): 10.23%

SMILES: Cn1c(SCC(=O)Nc2ccc(Br)cc2)nnc1-c1cccnc1
- Orco 28 + Orco Potentiator % increase [2]: 11.23%

SMILES: C=CCn1c(SCc2cc3c(cc2Cl)OCO3)nnc1-c1cccnc1
- Orco 28 + Orco Antagonist % Reduction [2]: 16.91%

SMILES: Cc1ccc(NC(=O)CSc2nnc(-c3cccnc3)n2C)c(C)c1
- Orco 28 + Orco Potentiator % increase [2]: 12.63%

SMILES: CCOc1ccccc1-n1c(SCC(=O)c2cccc([N+](=O)[O-])c2)nnc1-c1cccnc1
- Orco 28 + Orco Antagonist % Reduction [1]: 25.53%
- Orco 10 + Orco Angatonist % Reduction ([3]; Orco 10 + Orco): 22.28%

SMILES: Clc1ccc(-n2c(SC/C=C/c3ccccc3)nnc2-c2cccnc2)cc1
- Orco 28 + Orco Antagonist % Reduction [1]: 20.56%
- Orco 10 + Orco Potentiator % increase ([3]; Orco 10 + Orco): 48.08%

SMILES: CCn1c(SCC(=O)C(C)(C)C)nnc1-c1cccnc1
- Orco 28 + Orco Potentiator % increase [2]: 17.24%
- Orco 10 + Orco Potentiator % increase ([3]; 10 + Orco): 12.1%

SMILES: COC(=O)c1ccccc1NC(=O)CSc1nnc(-c2cccnc2)n1C
- Orco 28 + Orco Potentiator % increase [2]: 18.02%
- Orco 10 + Orco Potentiator % increase ([3]; 10 + Orco): 15.15%

SMILES: Cn1c(SCC(=O)Nc2ccc(F)cc2)nnc1-c1cccnc1
- Orco 28 + Orco Antagonist % Reduction [2]: 11.09%

SMILES: CCOc1ccccc1-n1c(SCC(N)=O)nnc1-c1cccnc1
- Orco 28 + Orco Potentiator % increase [1]: 14.71%

SMILES: NC(=O)CSc1nnc(-c2cccnc2)n1-c1ccccc1
- Orco 28 + Orco Potentiator % increase [1]: 15.18%

SMILES: CCn1c(SCc2nc3ccccc3[nH]2)nnc1-c1cccnc1
- Orco 28 + Orco Potentiator % increase [2]: 15.1%
- Orco 10 + Orco Potentiator % increase ([3]; 10 + Orco): 7.5%

SMILES: CC(C)c1ccc(NC(=O)CSc2nnc(-c3ccncc3)n2C2CC2)cc1 [VUAA4, 2-((4-cyclopropyl-5-(pyridin-4-yl)-4H-1,2,4-triazol-3-yl)thio)-N-(4-isopropylphenyl)acetamide]
- improvement in agonist potency compared to VUAA1 ([4]; AgOrco+AgOR65): 10 fold
- maximum response relative to earlier VUAA compounds ([4]; AgOrco+AgOR65): additional improvement in the maximum response when compared to VUAA1
- EC50 ([4]; heteromeric OR channels AgOrco+AgOR65, read-out: EC50): 2100 nM
- larval movement at the highest concentration ([5]; 10^−5M): Reduced larval movement
- larval movement response ([5]; 10^−8M): absence of response
- larval behavioral (movement) response ([5]; compared with DMSO controls or VUAA1): higher levels of movement
- lower response threshold compared to VUAA1 ([5]; in vivo): 5 fold
- threshold concentration for increased larval movement ([5]; movements over 5-minute period): 1 nM
- EC50 [6]: 1700 nM

SMILES: CCc1cccc(CC)c1-n1c(SCn2nnc3ccccc3c2=O)nnc1-c1cccnc1
- Orco 28 + Orco Antagonist % Reduction [1]: 22.91%
- Orco 10 + Orco Angatonist % Reduction ([3]; Orco 10 + Orco): 25.00%

SMILES: Cc1cc(C)c(C(=O)CSc2nnc(-c3cccnc3)n2C)c(C)c1
- Orco 28 + Orco Antagonist % Reduction [2]: 18.21%

Source: US11484032B2, “Compositions for inhibition of insect sensing” (Vanderbilt University, priority 2011, dated 2022)
